{"source": "paper PMC9516332", "about": "(Frontiers in Oncology, 2022)", "test_system": "134 cancer cell lines", "test": "Cell viability assay (ATPlite, 72 hours), IC50 on cancer cell line panel", "note": "pIC50: −log10 of the molar value. Where two headings read alike, the source gives them in different places.", "data": [{"smiles": "CNC(=O)c1ccc(-c2cnc3ncc(Cc4ccc5ncccc5c4)n3n2)cc1F", "note": "[capmatinib]", "values": [{"measurement": "pIC50", "setting": "Homo sapiens, LoVo, read-out: IC50 in cell proliferation assay", "result": 8.73}, {"measurement": "pIC50", "setting": "Homo sapiens, MCF7, read-out: IC50 in cell proliferation assay", "result": "< 4.50"}, {"measurement": "pIC50", "setting": "Homo sapiens, MDA-MB-231, read-out: IC50 in cell proliferation assay", "result": "< 4.50"}, {"measurement": "pIC50", "setting": "Homo sapiens, MDA-MB-453, read-out: IC50 in cell proliferation assay", "result": "< 4.50"}, {"measurement": "pIC50", "setting": "Homo sapiens, MDA-MB-468, read-out: IC50 in cell proliferation assay", "result": 4.51}, {"measurement": "pIC50", "setting": "Homo sapiens, MG-63, read-out: IC50 in cell proliferation assay", "result": "< 4.50"}, {"measurement": "pIC50", "setting": "Homo sapiens, MIA PaCa-2, read-out: IC50 in cell proliferation assay", "result": "< 4.50"}, {"measurement": "pIC50", "setting": "Homo sapiens, MKN-45, read-out: IC50 in cell proliferation assay", "result": 8.40}, {"measurement": "pIC50", "setting": "Homo sapiens, MOLM-13, read-out: IC50 in cell proliferation assay", "result": 5.22}, {"measurement": "pIC50", "setting": "Homo sapiens, MOLT-4, read-out: IC50 in cell proliferation assay", "result": "< 4.50"}, {"measurement": "pIC50", "setting": "Homo sapiens, MV4-11, read-out: IC50 in cell proliferation assay", "result": 5.71}, {"measurement": "pIC50", "setting": "Homo sapiens, MeWo, read-out: IC50 in cell proliferation assay", "result": "< 4.50"}, {"measurement": "pIC50", "setting": "Homo sapiens, NCCIT, read-out: IC50 in cell proliferation assay", "result": "< 4.50"}, {"measurement": "pIC50", "setting": "Homo sapiens, NCI-H82, read-out: IC50 in cell proliferation assay", "result": "< 4.50"}, {"measurement": "pIC50", "setting": "Homo sapiens, NCI-H460, read-out: IC50 in cell proliferation assay", "result": "< 4.50"}, {"measurement": "pIC50", "setting": "Homo sapiens, NCI-H661, read-out: IC50 in cell proliferation assay", "result": "< 4.50"}, {"measurement": "pIC50", "setting": "Homo sapiens, NCI-H716, read-out: IC50 in cell proliferation assay", "result": "< 4.50"}, {"measurement": "pIC50", "setting": "Homo sapiens, NCI-H1650, read-out: IC50 in cell proliferation assay", "result": 5.02}, {"measurement": "pIC50", "setting": "Homo sapiens, NCI-H1975, read-out: IC50 in cell proliferation assay", "result": "< 4.50"}, {"measurement": "pIC50", "setting": "Homo sapiens, NCI-H2228, read-out: IC50 in cell proliferation assay", "result": "< 4.50"}, {"measurement": "pIC50", "setting": "Homo sapiens, OVCAR-3, read-out: IC50 in cell proliferation assay", "result": "< 4.50"}, {"measurement": "pIC50", "setting": "Homo sapiens, PFSK-1, read-out: IC50 in cell proliferation assay", "result": "< 4.50"}, {"measurement": "pIC50", "setting": "Homo sapiens, RL95-2, read-out: IC50 in cell proliferation assay", "result": "< 4.50"}, {"measurement": "pIC50", "setting": "Homo sapiens, RPMI-7951, read-out: IC50 in cell proliferation assay", "result": "< 4.50"}, {"measurement": "pIC50", "setting": "Homo sapiens, RS4-11, read-out: IC50 in cell proliferation assay", "result": "< 4.50"}, {"measurement": "pIC50", "setting": "Homo sapiens, Rec1, read-out: IC50 in cell proliferation assay", "result": 5.52}, {"measurement": "pIC50", "setting": "Homo sapiens, SHP77, read-out: IC50 in cell proliferation assay", "result": "< 4.50"}, {"measurement": "pIC50", "setting": "Homo sapiens, SK-BR-3, read-out: IC50 in cell proliferation assay", "result": "< 4.50"}, {"measurement": "pIC50", "setting": "Homo sapiens, SK-N-AS, read-out: IC50 in cell proliferation assay", "result": "< 4.50"}, {"measurement": "pIC50", "setting": "Homo sapiens, SK-N-FI, read-out: IC50 in cell proliferation assay", "result": "< 4.50"}, {"measurement": "pIC50", "setting": "Homo sapiens, SK-N-MC, read-out: IC50 in cell proliferation assay", "result": "< 4.50"}, {"measurement": "pIC50", "setting": "Homo sapiens, SK-N-SH, read-out: IC50 in cell proliferation assay", "result": 5.01}, {"measurement": "pIC50", "setting": "Homo sapiens, SNU-5, read-out: IC50 in cell proliferation assay", "result": 9.02}, {"measurement": "pIC50", "setting": "Homo sapiens, SNU-16, read-out: IC50 in cell proliferation assay", "result": "< 4.50"}, {"measurement": "pIC50", "setting": "Homo sapiens, SNU-C2B, read-out: IC50 in cell proliferation assay", "result": "< 4.50"}, {"measurement": "pIC50", "setting": "Homo sapiens, SU-DHL-1, read-out: IC50 in cell proliferation assay", "result": "< 4.50"}, {"measurement": "pIC50", "setting": "Homo sapiens, SU-DHL-6, read-out: IC50 in cell proliferation assay", "result": "< 4.50"}, {"measurement": "pIC50", "setting": "Homo sapiens, SUP-T1, read-out: IC50 in cell proliferation assay", "result": "< 4.50"}, {"measurement": "pIC50", "setting": "Homo sapiens, SW48, read-out: IC50 in cell proliferation assay", "result": "< 4.50"}, {"measurement": "pIC50", "setting": "Homo sapiens, SW480, read-out: IC50 in cell proliferation assay", "result": "< 4.50"}, {"measurement": "pIC50", "setting": "Homo sapiens, SW626, read-out: IC50 in cell proliferation assay", "result": "< 4.50"}, {"measurement": "pIC50", "setting": "Homo sapiens, SW780, read-out: IC50 in cell proliferation assay", "result": "< 4.50"}, {"measurement": "pIC50", "setting": "Homo sapiens, SW837, read-out: IC50 in cell proliferation assay", "result": 5.14}, {"measurement": "pIC50", "setting": "Homo sapiens, SW872, read-out: IC50 in cell proliferation assay", "result": "< 4.50"}, {"measurement": "pIC50", "setting": "Homo sapiens, SW900, read-out: IC50 in cell proliferation assay", "result": "< 4.50"}, {"measurement": "pIC50", "setting": "Homo sapiens, SW948, read-out: IC50 in cell proliferation assay", "result": "< 4.50"}, {"measurement": "pIC50", "setting": "Homo sapiens, SW982, read-out: IC50 in cell proliferation assay", "result": "< 4.50"}, {"measurement": "pIC50", "setting": "Homo sapiens, SW-620, read-out: IC50 in cell proliferation assay", "result": "< 4.50"}, {"measurement": "pIC50", "setting": "Homo sapiens, T98G, read-out: IC50 in cell proliferation assay", "result": "< 4.50"}, {"measurement": "pIC50", "setting": "Homo sapiens, TCC-SUP, read-out: IC50 in cell proliferation assay", "result": "< 4.50"}, {"measurement": "pIC50", "setting": "Homo sapiens, THP-1, read-out: IC50 in cell proliferation assay", "result": "< 4.50"}, {"measurement": "pIC50", "setting": "Homo sapiens, U2OS, read-out: IC50 in cell proliferation assay", "result": "< 4.50"}, {"measurement": "pIC50", "setting": "Homo sapiens, U-87 MG, read-out: IC50 in cell proliferation assay", "result": 7.64}, {"measurement": "pIC50", "setting": "Homo sapiens, U-118-MG, read-out: IC50 in cell proliferation assay", "result": "< 4.50"}, {"measurement": "pIC50", "setting": "Homo sapiens, UMUC3, read-out: IC50 in cell proliferation assay", "result": "< 4.50"}, {"measurement": "pIC50", "setting": "Hs766T, read-out: IC50 in cell proliferation assay", "result": "< 4.50"}, {"measurement": "pIC50", "setting": "L-82, read-out: IC50 in cell proliferation assay", "result": "< 4.50"}, {"measurement": "pIC50", "setting": "Rh30, read-out: IC50 in cell proliferation assay", "result": 5.13}]}]}
